# Test results as given in PubChem BioAssay AID1159611.
# Molecular target: Retinoic acid receptor RXR-alpha (Homo sapiens) (UniProt P19793)
# Test: RXRalpha binders by radioligand displacement, dose response, biochemical, [3H]9-cis-retinoic acid (AID 1159611)
# Settings: RXRalpha [3H]9-cis-retinoic acid displacement binding
# Retinoic acid receptor RXR-alpha (Homo sapiens), sequence (P19793 whole entry, looked up): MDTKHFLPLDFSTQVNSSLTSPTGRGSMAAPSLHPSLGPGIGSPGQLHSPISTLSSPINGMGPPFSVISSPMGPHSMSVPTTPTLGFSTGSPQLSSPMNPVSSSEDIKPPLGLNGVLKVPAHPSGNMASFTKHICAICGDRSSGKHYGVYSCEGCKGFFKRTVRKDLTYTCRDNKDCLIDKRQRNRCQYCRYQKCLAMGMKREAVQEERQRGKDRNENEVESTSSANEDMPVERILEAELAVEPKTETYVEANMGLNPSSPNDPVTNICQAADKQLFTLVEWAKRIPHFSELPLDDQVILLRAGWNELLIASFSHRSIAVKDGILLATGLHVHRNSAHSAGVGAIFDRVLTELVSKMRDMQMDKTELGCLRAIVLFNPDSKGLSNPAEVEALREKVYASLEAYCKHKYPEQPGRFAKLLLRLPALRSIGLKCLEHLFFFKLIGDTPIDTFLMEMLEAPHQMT
compound,measurement,value
CC1=C[C@H](O)CC(C)(C)[C@H]1/C=C/C(C)=C/C=C/C(C)=C/C=C/C=C(C)/C=C/C=C(C)/C=C/C1=C(C)C[C@@H](O)CC1(C)C,IC50,5.74 µM
